Common to all, as to format: cell-based
For test [1], the target named is T1, RORd1 (Oryzias latipes, UniProt H2LFF5).
T1 construct: gene rorca
T1 sequence (H2LFF5 98-473): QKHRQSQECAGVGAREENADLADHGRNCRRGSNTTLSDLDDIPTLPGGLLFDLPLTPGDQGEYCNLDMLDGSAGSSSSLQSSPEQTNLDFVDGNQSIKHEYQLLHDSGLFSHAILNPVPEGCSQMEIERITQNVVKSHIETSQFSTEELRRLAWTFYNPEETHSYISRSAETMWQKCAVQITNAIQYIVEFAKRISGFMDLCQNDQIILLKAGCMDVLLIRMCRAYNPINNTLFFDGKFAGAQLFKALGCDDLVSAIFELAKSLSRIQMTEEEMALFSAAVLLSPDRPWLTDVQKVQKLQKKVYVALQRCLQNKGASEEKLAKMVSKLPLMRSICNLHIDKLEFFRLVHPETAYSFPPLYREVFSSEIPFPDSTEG
As to the kind of experiment: Gal4-RORd1 LBD luciferase reporter assay in stable HEK293 cells (agonist).

Test [2] addresses T1, RORd1. The experiment in a line: Gal4-RORd1 LBD luciferase reporter assay in stable HEK293 cells (weak agonist, […], EC50 not calculable).
For test [3], the target named is T1, RORd1. The test is described as above. The source holds these as a separate data set.

Molecule `CC1=C(/C=C/C(C)=C/C=C/C(C)=C/C(=O)O)C(C)(C)CCC1=O` [4 K–ATRA, all-trans 4-ketoretinoic acid] registered a concentration for a half-maximal effect (EC50) in test [1] of 737 ± 47.3 nM.
With `CC1=C(/C=C/C(C)=C/C=C/C(C)=C/C(=O)O)C(C)(C)CCC1O` (stereo not drawn) [4OH-ATRA, all-trans 4-hydroxyretinoic acid], the EC50 in test [1] was 539 ± 97.3 nM.
With `CC(/C=C/C12OC1(C)CCCC2(C)C)=C\C=C\C(C)=C\C(=O)O` (stereo not drawn) [5,6E–ATRA, all-trans 5,6-epoxyretinoic acid], the EC50 in test [2] was more than 10000 nM.
Turning to `CC1=C(/C=C/C(C)=C/C=C/C(C)=C/C(=O)O)C(C)(C)CCC1` [ATRA, all-trans retinoic acid], the EC50 in test [3] is more than 10000 nM.

Values taken from PMC5553892, “A fourth subtype of retinoic acid receptor-related orphan receptors is activated by oxidized all-trans retinoic acid in medaka (Oryzias latipes)” (Zoological Letters, 2017).
